{"source": "patent US20260184712A1", "about": "“Heterocyclic Compounds as ENT Inhibitors and Compounds for Use in the Treatment of Cancers” (iTeos Belgium SA, priority 2022, published 2026)", "note": "pIC50: −log10 of the molar value."}
{"biological_target": "T1, human ENT1 (Homo sapiens, UniProt Q99808)", "T1 construct": "JAR cells expressing ENT1 were purchased from ATCC; host or cells: JAR cells", "T1 sequence (Q99808 1-456)": "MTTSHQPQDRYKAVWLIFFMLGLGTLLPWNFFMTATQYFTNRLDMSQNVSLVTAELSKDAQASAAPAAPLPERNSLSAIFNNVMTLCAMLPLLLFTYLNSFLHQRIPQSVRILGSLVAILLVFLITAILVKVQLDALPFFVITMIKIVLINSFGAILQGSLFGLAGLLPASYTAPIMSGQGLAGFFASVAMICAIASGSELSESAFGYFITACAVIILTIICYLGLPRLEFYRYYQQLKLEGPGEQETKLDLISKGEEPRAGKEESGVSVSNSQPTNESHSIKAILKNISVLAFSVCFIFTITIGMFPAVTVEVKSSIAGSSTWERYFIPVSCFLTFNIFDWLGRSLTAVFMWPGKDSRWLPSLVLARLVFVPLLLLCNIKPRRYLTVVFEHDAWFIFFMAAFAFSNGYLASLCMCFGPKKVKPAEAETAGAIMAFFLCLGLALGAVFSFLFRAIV", "test": "ENT1 binding assay (competition with Sahenta-DY647 on JAR cells)", "conditions": "competition with SAHENTA-DY647 binding; IC50 categorized; read-out: Binding Assay IC50", "description": "Compounds of the present disclosure were assayed to show ability to bind to human ENT1. The assay is a competition between a compound of interest and Sahenta-DY647, an ENT1 inhibitor that emits fluorescence (Ex=630 nm, Em=670 nm). By measuring the fluorescence at the end of the assay, one can assess the binding potency of the compounds tested. The compounds of the present disclosure were tested and compared to known ENT inhibitors, dilazep and NBMPR:\nJAR cells expressing ENT1 were purchased from ATCC® (HTB-144TM). Cells were cultured in RPMI 1640 medium (LONZA®, #BE12-702F/U1) supplemented with 10% FBS (GIBCO®, #10270-106), 10 mM Hepes (LONZA®, #BE17-737E), 1 mM Sodium Pyruvate (LONZA®, #BE13-115E), and 2% Penicillin/Streptomycin (LONZA®, #DE17-603E) at 37° C. and 5% CO2.\nThe assay was conducted with the following buffer on the day of the assay: HBSS (LONZA®, #LO-527F) supplemented with 10 mM Hepes (LONZA®, #BE17-737E) and 0.1% BSA (Miltenyi®, #130-091-376).\nJAR cells were resuspended in the described buffer. The compounds of interest and Sahenta-DY647 were diluted 200× with the described buffer.\nA total of 50,000 cells were pre-incubated for 30 min at 4° C. with the compounds of the present disclosure before adding the corresponding amount of Sahenta-DY647 (100 nM) to the minimal concentration at Bmax and incubating for an additional 30 min at 4° C. The total volume of the reaction was 100 μL (50 μL of cells, 25 μL of the compounds of the present disclosure, and 25 μL of Sahenta-DY647) in a U-bottom 96 well plate (Greiner®, #650-180). The plates were washed 2× by centrifugation (4 min, 400 rcf at 4° C.) in the same buffer. Cells were re-suspended in 70 μL of the buffer and 50 μL was transferred to a Black 384 Optiplate (PerkinElmer®, #6007279). Fluorescence (Ex=630 nm, Em=670 nm) was acquired on a Spectramax i3x (Molecular Devices®).\nDose-response data from the compounds were analyzed with Graphpad Prism 9.1.1@software, using nonlinear regression applied to a sigmoidal dose-response model and the following equation:\nY=Bottom+(Top-Bottom)/(1+10^((LogIC50−X)*HillSlope)), with a shared bottom and top between the test reagent and dipyridamole.\nData from multiple experiments were compiled by taking the average pIC50 value for the reagent in question±the standard deviation (s.d.) and expressing it as an average IC50 value in nM.\nThe inhibitory effect of the test compound was expressed as a percentage of the inhibition of SAHENTA-DY647 binding."}
{"compound": "C[C@H]1O[C@@H](n2c(NC3CC3)nc3c(N4CCc5ccc(C#N)cc5C4)ncnc32)[C@H](O)[C@@H]1O", "note": "[Compound 164]", "pIC50": "6.30 to 7.70"}
{"compound": "C[C@H]1O[C@@H](n2c(NCCO)nc3c(N4CCc5ccc(C#N)cc5C4)ncnc32)[C@H](O)[C@@H]1O", "note": "[Compound 167]", "pIC50": "6.30 to 7.70"}
{"compound": "CCOC(=O)/C=C/[C@H]1O[C@@H](n2cnc3c(OCc4ccc([N+](=O)[O-])cc4)ncnc32)[C@H](O)[C@@H]1O", "note": "[Compound 169]", "pIC50": "6.30 to 7.70"}
{"compound": "C[C@H]1O[C@@H](n2c(NC3CCOCC3)nc3c(N4CCc5ccccc5C4)ncnc32)[C@H](O)[C@@H]1O", "note": "[Compound 170]", "pIC50": "6.30 to 7.70"}
{"compound": "C[C@H]1O[C@@H](n2c(N[C@H]3CC[C@H](O)CC3)nc3c(N4CCc5ccccc5C4)ncnc32)[C@H](O)[C@@H]1O", "note": "[Compound 171]", "pIC50": "6.30 to 7.70"}
{"compound": "C[C@H]1O[C@@H](n2c(NC3CCS(=O)(=O)CC3)nc3c(N4CCc5ccccc5C4)ncnc32)[C@H](O)[C@@H]1O", "note": "[Compound 181]", "pIC50": "6.30 to 7.70"}
{"compound": "O=[N+]([O-])c1ccc(COc2ncnc3c2ncn3[C@@H]2O[C@H](COCCO)[C@@H](O)[C@H]2O)cc1", "note": "[Compound 191]", "pIC50": "6.30 to 7.70"}
{"compound": "C[C@H]1O[C@@H](n2cnc3c(C4=Cc5cc([N+](=O)[O-])ccc5CC4)ncnc32)[C@H](O)[C@@H]1O", "note": "[Compound 192]", "pIC50": "6.30 to 7.70"}
{"compound": "C[C@H]1O[C@@H](n2c(N[C@H]3CC[C@@H](O)CC3)nc3c(N4CCc5ccccc5C4)ncnc32)[C@H](O)[C@@H]1O", "note": "[Compound 195]", "pIC50": "6.30 to 7.70"}
{"compound": "C[C@H]1O[C@@H](n2ccc3c(SCc4ccc([N+](=O)[O-])cc4)ncnc32)[C@H](O)[C@@H]1O", "note": "[Compound 197]", "pIC50": "6.30 to 7.70"}
{"compound": "CCNc1nc2c(N3CCc4ccc(C#N)cc4C3)ncnc2n1[C@@H]1O[C@H](C)[C@@H](O)[C@H]1O", "note": "[Compound 198]", "pIC50": "6.30 to 7.70"}
{"compound": "C[C@H]1O[C@@H](n2cnc3c(OCc4ccc(F)c(F)c4)ncnc32)[C@H](O)[C@@H]1O", "note": "[Compound 201]", "pIC50": "6.30 to 7.70"}
{"compound": "C[C@H]1O[C@@H](n2cnc3c(OCc4ccc(F)cc4)ncnc32)[C@H](O)[C@@H]1O", "note": "[Compound 202]", "pIC50": "6.30 to 7.70"}
{"compound": "C[C@H]1O[C@@H](n2cnc3c(OCc4ccc(C(F)(F)F)cc4)ncnc32)[C@H](O)[C@@H]1O", "note": "[Compound 204]", "pIC50": "6.30 to 7.70"}
{"compound": "C[C@H]1O[C@@H](n2cnc3c(OCc4ccc([N+](=O)[O-])nc4)ncnc32)[C@H](O)[C@@H]1O", "note": "[Compound 205]", "pIC50": "6.30 to 7.70"}
{"compound": "C[C@H]1O[C@@H](n2cnc3c(OCc4ccc(C5CC5)cc4)ncnc32)[C@H](O)[C@@H]1O", "note": "[Compound 206]", "pIC50": "6.30 to 7.70"}
{"compound": "C[C@H]1O[C@@H](n2cnc3c(SCc4ccc(OCC(F)(F)F)cc4)ncnc32)[C@H](O)[C@@H]1O", "note": "[Compound 207]", "pIC50": "6.30 to 7.70"}
{"compound": "C[C@H]1O[C@@H](n2c(-c3cn[nH]c3)nc3c(OCc4ccc([N+](=O)[O-])cc4)ncnc32)[C@H](O)[C@@H]1O", "note": "[Compound 208]", "pIC50": "6.30 to 7.70"}
{"compound": "C[C@H]1O[C@@H](n2cnc3c(N4CC(c5ccc([N+](=O)[O-])cc5)C4)ncnc32)[C@H](O)[C@@H]1O", "note": "[Compound 209]", "pIC50": "6.30 to 7.70"}
{"compound": "C[C@H]1O[C@@H](n2cnc3c(CCc4ccc([N+](=O)[O-])cc4)ncnc32)[C@H](O)[C@@H]1O", "note": "[Compound 210]", "pIC50": "6.30 to 7.70"}
{"compound": "Cc1ccc(COc2ncnc3c2ncn3[C@@H]2O[C@H](C)[C@@H](O)[C@H]2O)cc1", "note": "[Compound 211]", "pIC50": "6.30 to 7.70"}
{"compound": "CC(C)Nc1nc2c(N3CCc4ccccc4C3)ncnc2n1[C@@H]1O[C@H](C)[C@@H](O)[C@H]1O", "note": "[Compound 212]", "pIC50": "6.30 to 7.70"}
{"compound": "C[C@H]1O[C@@H](n2cnc3c(N4CCC(c5ccc([N+](=O)[O-])cc5)CC4)ncnc32)[C@H](O)[C@@H]1O", "note": "[Compound 213]", "pIC50": "6.30 to 7.70"}
{"compound": "C[C@H]1C[C@@H](n2cnc3c(SCc4ccc([N+](=O)[O-])cc4)ncnc32)[C@H](O)[C@@H]1O", "note": "[Compound 214]", "pIC50": "6.30 to 7.70"}
{"compound": "C[C@H]1O[C@@H](n2c(N)nc3c(OCCc4ccc([N+](=O)[O-])cc4)ncnc32)[C@H](O)[C@@H]1O", "note": "[Compound 215]", "pIC50": "6.30 to 7.70"}
{"compound": "O=[N+]([O-])c1ccc(CSc2ncnc3c2ncn3[C@@H]2O[C@H](CO)C[C@H]2O)cc1", "note": "[Compound 216]", "pIC50": "6.30 to 7.70"}
